Experimental data as given in patent publication US20210355106A1, “NEW AMINO-PYRIMIDONYL-PIPERIDINYL DERIVATIVES, A PROCESS FOR THEIR PREPARATION AND PHARMACEUTICAL COMPOSITIONS CONTAINING THEM” (LES LABORATOIRES SERVIER, priority 2018, published 2021).

How the values were obtained:
[1] = target: T1, USP7 (Homo sapiens, UniProt Q93009, C315A); assay: Inhibition of USP7 by Fluorescence Intensity (FLINT) readings, Ubiquitin-Rhodamine-110 substrate; assay type: biochemical; settings: 0.25 nM His-His-USP7 (aa208-560), 60 minutes at 30° C. preincubation; Ki determined from IC50 according to Cer et al.
T1 construct: 0.25 nM His-His-USP7 (aa208-560, |C315A|) was incubated with compound; His-His (N)
Method in brief: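 His-tagged USP7 (aa208-560, C315A), 0.25 nM, preincubated with compound 60 min at 30 °C in 100 mM Bicine pH 8.0, 0.01% Triton X-100, 1 mM TCEP, 10% DMSO. Ubiquitin-Rhodamine-110 (50 nM or 4 μM) added; kinetic fluorescence (Ex 485/Em 535 nm) over 21 min; IC50 from 11-point curves, Ki derived from IC50.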

[2] = system: Z138 mantle cell lymphoma tumour cell lines; assay: In vitro cytotoxicity, MTT assay; assay type: cell-based; settings: Z138 cells, exposed to the test compounds for 96 hours
Description: The cytotoxicity studies were evaluated by MTT [3-(4,5-dimethylthiaxol-2-yl)-2,5-diphenyltetrazolium bromide|assay and carried out on Z138 mantle cell lymphoma tumour cell lines. The cells are distributed onto microplates and exposed to the test compounds for 96 hours. MTT is then added for 4 hours and converted by NAD(P)H-dependent cellular oxidoreductase enzymes in forma/an, which has a purple color. The viable cell number is proportional to the production of formazan salts and cell viability can be quantified by the absorbance of the solution at 540 nm with a spectrophotometer (Carmichael et al., Cancer Res. 1987, 47, 936-942).

T1 sequence (Q93009 208-560 C315A): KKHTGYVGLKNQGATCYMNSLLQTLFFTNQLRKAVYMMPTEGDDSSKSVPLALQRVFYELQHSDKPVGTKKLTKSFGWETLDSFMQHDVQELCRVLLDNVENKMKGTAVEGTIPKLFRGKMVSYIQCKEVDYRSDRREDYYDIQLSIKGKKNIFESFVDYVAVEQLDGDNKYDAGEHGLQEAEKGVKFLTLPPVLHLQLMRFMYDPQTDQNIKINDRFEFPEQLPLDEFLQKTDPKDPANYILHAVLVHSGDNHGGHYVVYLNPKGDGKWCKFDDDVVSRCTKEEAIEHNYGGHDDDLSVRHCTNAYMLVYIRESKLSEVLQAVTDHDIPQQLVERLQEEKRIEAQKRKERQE

Structure (SMILES)	Ki [1]	IC50 ([2]; Homo sapiens, Z-138)	IC50 [2]
Cc1nc(Br)sc1C(=O)N1CC[C@@H](C(=O)N2CC[C@](O)(Cn3cnc(Oc4ccc(F)cc4)c(N)c3=O)C(F)(F)C2)[C@H](c2ccccc2)C1 [Example 41, 5-amino-3-(((4S)-1-[(3R,4R)-1-(2-bromo-4-methyl-1,3-thiazole-5-carbonyl)-3-phenylpiperidine-4-carbonyl]-3,3-difluoro-4-hydroxypiperidin-4-yl}methyl)-6-(4-fluorophenoxy)pyrimidin-4(3H)-one]	6.7 nM	2.5 nM	
Cc1nc(-c2ccc(C(F)(F)F)nc2)sc1C(=O)N1CC[C@@H](C(=O)N2CCC(O)(Cn3cnc(Oc4ccc(F)cc4)c(N)c3=O)CC2)[C@H](c2ccccc2)C1 [Example 42, 5-amino-6-(4-fluorophenoxy)-3-({4-hydroxy-1-{(3R,4R)-1-{4-methyl-2-[6-(trifluromethyl)pyridin-3-yl]-1,3-thiazole-5carbonyl)-3-phenylpiperidine-4-carbonyl]piperidin-4-yl}methyl)pyrimidin-4(3H)-one]	4.1 nM		3.66 nM
Cc1nc(-c2ccc(N(C)C)nc2)sc1C(=O)N1CC[C@@H](C(=O)N2CCC(O)(Cn3cnc(Oc4ccc(F)cc4)c(N)c3=O)CC2)[C@H](c2ccccc2)C1 [Example 43, 5-amino-3-({1-[(3R,4R)-1-{2-[16-(dimethylamino)pyridin-3-yl-4-methyl-1,3-thiazole-5-carbonyl}-3-phenylpiperidine-4-carbonyl]-4-hydroxypiperidin-4-yl]}methyl)-6-(4-fluorophenoxy)pyrimidin-4(3H)-one]	6.42 nM	1.2 nM	
Cc1nc(-c2ccc(F)cc2)sc1C(=O)N1CC[C@@H](C(=O)N2CC[C@](O)(Cn3cnc(Oc4ccc(F)cc4)c(N)c3=O)C(F)(F)C2)[C@H](c2ccccc2)C1 [Example 44]	18.1 nM	7.4 nM	
Cc1ccc(-c2nc(C)c(C(=O)N3CC[C@@H](C(=O)N4CC[C@](O)(Cn5cnc(Oc6ccc(F)cc6)c(N)c5=O)C(F)(F)C4)[C@H](c4ccccc4)C3)s2)cn1 [Example 45]	3.6 nM	1.4 nM	
Cc1ccc(-c2nc(C)c(C(=O)N3CC[C@@H](C(=O)N4CCC(O)(Cn5cnc(Oc6ccccc6)c(N)c5=O)CC4)[C@H](c4ccccc4)C3)s2)cn1 [Example 46, 5-amino-3-[(4-hydroxy-1-((3R,4R)-1-[4-methyl-2-(6-methylpyridin-3-yl)-1,3-thiazole-5-carbonyl]-3-phenylpiperidine-4-carbonyl)piperidin-4-yl)methyl)-6-phenoxypyrimidin-4(3H)-one]	2.9 nM	3.1 nM	
Cc1ccc(-c2nc(C)c(C(=O)N3CC[C@@H](C(=O)N4CCC(O)(Cn5cnc(Oc6ccc(F)cc6)c(N)c5=O)CC4)[C@H](c4ccccc4)C3)s2)cn1 [Example 47, 5-amino-6-(4-fluorophenoxy)-3-[(4-hydroxy-1-{(3R,4R)-1-[4-methyl-2-(6-methylpyridin-3-yl)-1,3-thiazole-5-carbonyl]-3-phenylpiperidine-4-carbonyl}piperidin-4-yl)methyl]pyrimidin-4(3H)-one]	2.2 nM	0.92 nM	
Cc1nc(-c2ccc(F)cc2)sc1C(=O)N1CC[C@@H](C(=O)N2CCC(O)(Cn3cnc(Oc4ccc(F)cc4)c(N)c3=O)CC2)[C@H](c2ccccc2)C1 [Example 48, 5-amino-6-(4-fluorophenoxy)-3-[(1-((3R,4R)-1-[2-(4-fluorophenyl)-4-methyl-1,3-thiazole-5-carbonyl]-3-phenylpiperidine-4-carbonyl}-4-hydroxypiperidin-4-yl)methyl]pyrimidin-4(3H)-one]	5.2 nM	3 nM	
Cc1ncc(C(=O)N2CC[C@@H](C(=O)N3CCC(O)(Cn4cnc(Oc5ccc(F)cc5)c(N)c4=O)CC3)[C@H](c3ccccc3)C2)s1 [Example 49]	24.9 nM	31 nM	

More lines, main results first:

Ki [1]	Structure (SMILES)	IC50 ([2]; Homo sapiens, Z-138)	IC50 [2]
7.89 nM	Nc1c(Oc2ccc(F)cc2)ncn(CC2(O)CCN(C(=O)[C@@H]3CCN(Cc4cnc(Br)s4)C[C@H]3c3ccccc3)CC2)c1=O [Example 50, 5-amino-3-[[1-[(3R,4R)-1-[(2-bromothiazol-5-yl)methyl]-3-phenyl-piperidine-4-carbonyl]-4-hydroxy-4-piperidyl]methyl]-6-(4-fluorophenoxy)pyrimidin-4-one]	6.17 nM	
2.6 nM	Cc1ccc(-c2ncc(CN3CC[C@@H](C(=O)N4CCC(O)(Cn5cnc(Oc6ccc(F)cc6)c(N)c5=O)CC4)[C@H](c4ccccc4)C3)s2)cn1 [Example 51, 5-amino-6-(4-fluorophenoxy)-3-({4-hydroxy-1-[(3R,4R)-1-{{2-(6-methylpyridin-3 yl)-1,3-thiazol-5-yl]methyl}-3-phenylpiperidine-4-carbonyl]piperidin-4-yl}methyl)pyrimidin-4(3H)-one]	1.4 nM	
13 nM	Nc1c(Oc2ccc(F)cc2)ncn(CC2(O)CCN(C(=O)[C@@H]3CCN(Cc4ccccc4F)C[C@H]3c3ccccc3)CC2)c1=O [Example 52, 5-amino-6-(4-fluorophenoxy)-3-[(1-((3R,4R)-1-[(2-fluorophenyl)methyl]-3-phenylpiperidine-4-carbonyl}-4-hydroxypiperidin-4-yl)methyl]pyrimidin-4(3H)-one]	5.4 nM	
6.6 nM	Cc1ccc(-c2ncc(CN3CC[C@@H](C(=O)N4CC[C@](O)(Cn5cnc(Oc6ccc(F)cc6)c(N)c5=O)C(F)(F)C4)[C@H](c4ccccc4)C3)s2)cn1 [Example 53]	3.4 nM	
13 nM	Nc1c(Oc2ccc(F)cc2)ncn(C[C@@]2(O)CCN(C(=O)[C@@H]3CCN(Cc4ccccc4F)C[C@H]3c3ccccc3)CC2(F)F)c1=O [Example 54, 5-amino-3-{[(4S)-3,3-difluoro-1-((3R,4R)-1-[(2-fluorophenyl)methyl]-3-phenylpiperidine-4-carbonyl}-4-hydroxypiperidin-4-yl}methyl)-6-(4-fluorophenoxy)pyrimidin-4(3H)-one]	9.1 nM	
15 nM	CCOc1cccc(C(=O)N2CC[C@@H](C(=O)N3CCC(O)(Cn4cnc(Oc5ccc(F)cc5)c(N)c4=O)CC3)[C@H](c3ccccc3)C2)c1 [Example 55, 5-amino-3-({1-[(3R,4R)-1-(3-ethoxybenzoyl)-3-phenylpiperidine-4-carbonyl]-4-hydroxypiperidin-4-yl)methyl)-6-(4-fluorophenoxy)pyrimidin-4(3H)-one]	12 nM	
16 nM	CN1CCN(c2cccc(C(=O)N3CC[C@@H](C(=O)N4CCC(O)(Cn5cnc(Oc6ccc(F)cc6)c(N)c5=O)CC4)[C@H](c4ccccc4)C3)c2)CC1 [Example 56]	42 nM	
35.8 nM	Nc1c(Oc2ccc(F)cc2)ncn(CC2(O)CCN(C(=O)[C@@H]3CCN(S(=O)(=O)c4ccc(Br)s4)C[C@H]3c3ccccc3)CC2)c1=O [Example 59]	41.1 nM	
75.9 nM	Nc1c(Oc2ccc(F)cc2)ncn(CC2(O)CCN(C(=O)[C@@H]3CCN(C(=S)Nc4ccccc4)C[C@H]3c3ccccc3)CC2)c1=O [Example 60]	128 nM	
7.9 nM	Cc1nc(Cc2ccccc2)sc1C(=O)N1CC[C@@H](C(=O)N2CCC(O)(Cn3cnc(Oc4ccc(F)cc4)c(N)c3=O)CC2)[C@H](c2ccccc2)C1 [Example 61, 5-amine-3-({1-[(3R,4R)-1-(2-benzyl-4-methyl-1,3-thiazole-5-carbonyl)-3-phenylpiperidine-4-carbonyl]-4-hydroxypiperidin-4-yl)methyl)-6-(4-fluorophenoxy)pyrimidin-4(3H)-one]	17 nM	
14 nM	Nc1c(Oc2ccc(F)cc2)ncn(CC2(O)CCN(C(=O)[C@@H]3CCN(Cc4cccnc4)C[C@H]3c3ccccc3)CC2)c1=O [Example 62, 5-amino-6-(4-fluorophenoxy)-3-[(4-hydroxy-1-{(3R,4R)-3-phenyl-1-[(pyridin-3-yl)methyl]piperidine-4-carbonyl)piperidin-4-yl)methyl]pyrimidin-4(3H)-one]	14 nM	
12.4 nM	Nc1c(Oc2ccc(F)cc2)ncn(CC2(O)CCN(C(=O)[C@@H]3CCN(Cc4cnccn4)C[C@H]3c3ccccc3)CC2)c1=O [Example 63]	16.3 nM	
6.4 nM	Cc1nc(N2CCOCC2)sc1C(=O)N1CC[C@@H](C(=O)N2CCC(O)(Cn3cnc(Oc4ccc(F)cc4)c(N)c3=O)CC2)[C@H](c2ccccc2)C1 [Example 64, 5-amino-6-(4-fluorophenoxy)-3-[(4-hydroxy-1-{(3R,4R)-1-[4-methyl-2-(morpholin-4-yl)-1,3-thiazole-5-carbonyl]-3-phenylpiperidine-4-carbonyl)piperidin-4-yl)methyl]pyrimidin-4(3H)-one]	8.39 nM	
4.2 nM	Cc1nc(N2CCCC2)sc1C(=O)N1CC[C@@H](C(=O)N2CCC(O)(Cn3cnc(Oc4ccc(F)cc4)c(N)c3=O)CC2)[C@H](c2ccccc2)C1 [Example 65, 5-amino-6-(4-fluorophenoxy)-3-[(4-hydroxy-1-{(3R,4R)-1-[4-methyl-2-(pyrrolidin-1-yl)-1,3-thiazole-5-carbonyl]-3-phenylpiperidine-4-carbonyl]piperidin-4-yl)methyl]pyrimidin-4(3H)-one]	7.66 nM	
